{
  "source": "ChEMBL document CHEMBL1800066",
  "about": "(J Med Chem, 2011)",
  "key": {"[1]": {"experiment": "Volume of distribution at steady state in rat at 2 mg/kg, iv and 5 mg/kg, po", "assay_type": "ADME, organism-based", "conditions": "in vivo, read-out: Vdss"}, "[2]": {"molecular_target": "Voltage-gated inwardly rectifying potassium channel KCNH2 (Homo sapiens, UniProt Q12809)", "experiment": "Inhibition of Kv11.1 channel"}, "[3]": {"experiment": "AUC (0 to infinity) in mouse at 2 mg/kg, po", "assay_type": "ADME, organism-based", "set-up": "time infinity, dose 2 mg/kg, route oral", "conditions": "plasma"}, "[4]": {"experiment": "AUC (0 to infinity) in rat at 5 mg/kg, po", "assay_type": "ADME, organism-based", "set-up": "dose 5 mg/kg, route oral, time infinity", "conditions": "plasma"}, "[5]": {"experiment": "AUC (0 to infinity) in monkey at 0.5 mg/kg, po", "assay_type": "ADME, organism-based, Macaca mulatta", "set-up": "time infinity, dose 0.5 mg/kg, route oral", "conditions": "rhesus monkey, plasma"}, "[6]": {"experiment": "Plasma clearance in monkey at 0.25 mg/kg, iv", "assay_type": "ADME, organism-based, Macaca mulatta", "set-up": "dose 0.25 mg/kg, route intravenous", "conditions": "rhesus monkey"}, "[7]": {"experiment": "Volume of distribution at steady state in dog at 1 mg/kg, iv", "assay_type": "ADME, organism-based, Canis lupus familiaris", "set-up": "dose 1 mg/kg, route intravenous", "conditions": "in vivo, read-out: Vdss"}, "[8]": {"experiment": "Half life in mouse at 1 mg/kg, iv", "assay_type": "ADME, organism-based", "set-up": "dose 1 mg/kg, route intravenous", "conditions": "in vivo"}, "[9]": {"experiment": "Half life in dog at 1 mg/kg, iv", "assay_type": "ADME, organism-based, Canis lupus familiaris", "set-up": "dose 1 mg/kg, route intravenous", "conditions": "in vivo"}, "[10]": {"experiment": "Half life in monkey at 0.25 mg/kg, iv", "assay_type": "ADME, organism-based, Macaca mulatta", "set-up": "dose 0.25 mg/kg, route intravenous", "conditions": "rhesus monkey, in vivo"}, "[11]": {"experiment": "Cmax in mouse at 2 mg/kg, po", "assay_type": "ADME, organism-based", "set-up": "dose 2 mg/kg, route oral", "conditions": "in vivo"}, "[12]": {"experiment": "Cmax in rat at 5 mg/kg, po", "assay_type": "ADME, organism-based", "set-up": "dose 5 mg/kg, route oral", "conditions": "in vivo"}, "[13]": {"experiment": "Tmax in mouse at 2 mg/kg, po", "assay_type": "ADME, organism-based", "set-up": "dose 2 mg/kg, route oral", "conditions": "in vivo"}, "[14]": {"experiment": "Oral bioavailability in monkey at 0.5 mg/kg", "assay_type": "ADME, organism-based, Macaca mulatta", "conditions": "rhesus monkey, in vivo"}, "[15]": {"experiment": "Lipophilicity, log P of the compound", "assay_type": "physicochemical", "conditions": "octanol/water"}, "[16]": {"molecular_target": "Hepatocyte growth factor receptor (Homo sapiens, UniProt P08581, Y1230C)"}, "[17]": {"molecular_target": "Macrophage-stimulating protein receptor (Homo sapiens, UniProt Q04912)", "experiment": "Inhibition of human Ron"}, "[18]": {"molecular_target": "Vascular endothelial growth factor receptor 1 (Homo sapiens, UniProt P17948)", "experiment": "Inhibition of human Flt1"}, "[19]": {"molecular_target": "Receptor-type tyrosine-protein kinase FLT3 (Homo sapiens, UniProt P36888)", "experiment": "Inhibition of human Flt3"}, "[20]": {"molecular_target": "Tyrosine-protein kinase Mer (Homo sapiens, UniProt Q12866)", "experiment": "Inhibition of human Mer"}, "[21]": {"molecular_target": "Vascular endothelial growth factor receptor 2 (Homo sapiens, UniProt P35968)", "experiment": "Inhibition of human KDR"}, "[22]": {"tested_on": "GTL 16", "experiment": "Antitumor activity against human GTL16 cells xenografted in CD1 nu/nu mouse assessed as suppression of tumor growth at 200 mg/kg, po QD", "assay_type": "functional, organism-based", "set-up": "dose 200 mg/kg"}, "[23]": {"tested_on": "Mus musculus", "experiment": "Toxicity in human GTL16 cells xenografted CD1 nu/nu mouse assessed as change in median body weight at 10 to 100 mg/kg, po BID", "assay_type": "organism-based", "set-up": "dose 10-100 mg/kg, route oral", "conditions": "in vivo"}, "[24]": {"tested_on": "Mus musculus", "experiment": "Toxicity in human GTL16 cells xenografted CD1 nu/nu mouse assessed as change in median body weight at 200 mg/kg, po QD", "assay_type": "organism-based", "set-up": "dose 200 mg/kg, route oral", "conditions": "in vivo"}, "[25]": {"experiment": "Inhibition of potassium channel IKr"}, "[26]": {"molecular_target": "Hepatocyte growth factor receptor (Homo sapiens, UniProt P08581)"}},
  "note": "Active and inactive are the calls of the source. No cut-off for these calls is given here.",
  "data": [
    {"smiles": "CN(C[C@@H]1COCCO1)S(=O)(=O)Nc1ccc2ccc3ncc(-c4cnn(C)c4)cc3c(=O)c2c1", "note": "[MK-2461]", "values": [
      {"measurement": "Vd", "setting": "[1]", "result": 0.4, "unit": "L/kg"},
      {"measurement": "IC50", "setting": "[2]", "result": "> 30000", "unit": "nM"},
      {"measurement": "AUC(0-inf)", "setting": "[3]", "result": 0.6, "unit": "µM·h"},
      {"measurement": "AUC(0-inf)", "setting": "[4]", "result": 11.8, "unit": "µM·h"},
      {"measurement": "AUC(0-inf)", "setting": "[5]", "result": 0.4, "unit": "µM·h"},
      {"measurement": "clearance", "setting": "[6]", "result": 8.4, "unit": "mL/min/kg"},
      {"measurement": "Vd", "setting": "[7]", "result": 1.1, "unit": "L/kg"},
      {"measurement": "half-life", "setting": "[8]", "result": 30, "unit": "min"},
      {"measurement": "half-life", "setting": "[9]", "result": 174, "unit": "min"},
      {"measurement": "half-life", "setting": "[10]", "result": 48, "unit": "min"},
      {"measurement": "Cmax", "setting": "[11]", "result": 410, "unit": "nM"},
      {"measurement": "Cmax", "setting": "[12]", "result": 4200, "unit": "nM"},
      {"measurement": "Tmax", "setting": "[13]", "result": 18, "unit": "min"},
      {"measurement": "bioavailability", "setting": "[14]", "result": 14, "unit": "%"},
      {"measurement": "logP", "setting": "[15]", "result": 2.7},
      {"measurement": "IC50", "setting": "[16]", "result": 1.5, "unit": "nM"},
      {"measurement": "IC50", "setting": "[17]", "result": 7, "unit": "nM"},
      {"measurement": "IC50", "setting": "[18]", "result": 10, "unit": "nM"},
      {"measurement": "IC50", "setting": "[19]", "result": 22, "unit": "nM"},
      {"measurement": "IC50", "setting": "[20]", "result": 24, "unit": "nM"},
      {"measurement": "IC50", "setting": "[21]", "result": 44, "unit": "nM"},
      {"measurement": "Activity", "setting": "[22]", "result": "Active"},
      {"measurement": "Activity", "setting": "[23]", "result": "Non-toxic"},
      {"measurement": "Activity", "setting": "[24]", "result": "Non-toxic"},
      {"measurement": "IC50", "setting": "[25]", "result": "> 30000", "unit": "nM"},
      {"measurement": "IC50", "setting": "[26]", "result": 2, "unit": "nM"}
    ]}
  ]
}
